From patent publication US11560400B2, “Salts of diphosphate phosphoramidate of nucleosides as anticancer compounds” (NuCana plc, priority 2017, dated 2023)
“Also recorded” adds a separate entry of the source. Where two headings read alike, the source gives them in different places.

Assays:
HT29 = assay: CellTiterGlo cell viability assay, HT29; type: cell-based; conditions: Homo sapiens, HT-29, 72 h, HT29, 72 h; for EC50: read-out: Ab EC50
In short: (§1)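 Cells were treated in duplicate for 72 h under standard growth conditions with a 9-point, 3.16-fold compound series at final concentrations of 198 μM to 19.8 nM in 0.5% DMSO. Viability was measured by CellTiterGlo luminescence, and absolute EC50 and percent inhibition at the top concentration were derived.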

HepG2 = assay: CellTiterGlo cell viability assay, HepG2; type: cell-based; conditions: Homo sapiens, HepG2, 72 h; for EC50: read-out: Ab EC50
In short: as §1

OVCAR 3 = assay: CellTiterGlo cell viability assay, OVCAR 3; type: cell-based; conditions: for EC50: OVCAR 3, 72 h, read-out: Ab EC50
In short: as §1

CCRF-CEM = assay: CellTiterGlo cell viability assay, CCRF-CEM; type: cell-based; conditions: 72 h; for EC50: read-out: Ab EC50
In short: as §1

MOLT-4 = assay: CellTiterGlo cell viability assay, MOLT-4; type: cell-based; conditions: MOLT-4, 72 h; for EC50: read-out: Ab EC50
In short: as §1

K562 = assay: CellTiterGlo cell viability assay, K562; type: cell-based; conditions: for EC50: read-out: Ab EC50
In short: as §1

RPMI-8226 = assay: CellTiterGlo cell viability assay, RPMI-8226; type: cell-based, Human; conditions: Homo sapiens, RPMI-8226, 72 h; for EC50: read-out: Ab EC50
In short: as §1

KG1a cells = assay: In vitro cytotoxicity, Annexin V/propidium iodide assay in KG1a cells; type: cell-based; conditions: for change of potency (mean LD50) under hypoxic versus normoxic conditions: 5% oxygen
Procedure: The acute myeloid leukaemia (AML) KG1a cell line was maintained in RPMI medium (Invitrogen, Paisley, UK) supplemented with 100 units/mL penicillin, 100 μg/mL streptomycin and 20% foetal calf serum. Cells were subsequently aliquoted (10^5 cells/100 μL) into 96-well plates and were incubated at 37° C. in a humidified normoxic (20% oxygen) or hypoxic (1% or 5% oxygen) atmosphere for 48 h in the presence of clofarabine, or clofarabine diphosphate phosphoramidates of the invention (1×10^−10M-1×10^−6M). In addition, control cultures were carried out to which no drug was added. Cells were subsequently harvested by centrifugation and were analysed by flow cytometry using the Annexin V assay.
Cultured cells were harvested by centrifugation and then resuspended in 195 μL of calcium-rich buffer. Subsequently, 5 μL of Annexin V (Caltag Medsystems, Botolph Claydon, UK) was added to the cell suspension and cells were incubated in the dark for 10 mins prior to washing. Cells were finally resuspended in 190 μL of calcium-rich buffer together with 10 μL of propidium iodide. Apoptosis was assessed by dual-colour immunofluorescent flow cytometry as described previously. Subsequently LD50 values (the dose required to kill 50% of the cells in a culture) were calculated for each nucleoside analogue and diphosphate phosphoramidate.
The data obtained in these experiments were evaluated using one-way ANOVA. All data was confirmed as Gaussian or a Gaussian approximation using the omnibus K2 test. LD50 values were calculated from the non-linear regression and line of best-fit analysis of the sigmoidal dose-response curves. All statistical analyses were performed using Graphpad Prism 6.0 software (Graphpad Software Inc., San Diego, Calif.).
The in vitro drug sensitivity of KG1a cells was assessed using the Annexin V/propidium iodide assay.

[1] = system: KG1a LSCs and bulk tumour cells; assay: γH2A.X phosphorylation assay (DNA damage) in purified LSCs and bulk tumour cells; type: cell-based; conditions: 2-hour exposure, hypoxic conditions (5% O2), in words
Procedure: KG1a cells were grown under hypoxic conditions for 7 days in order to generate 10^7 cells and increase the percentage of cells expressing an LSC phenotype. Subsequently, Lin^−/CD34^+/CD38^−/CD123^+ LSCs and Lin^−/CD34^+/CD38^+/CD123^+ ‘bulk’ tumour cells were purified by high speed cell sorting using a FACS Melody cell sorter (Becton Dickenson) and were placed back into hypoxic cell culture conditions prior to the addition of clofarabine or clofarabine diphosphate phosphoramidates.
Phosphorylation of the histone variant γH2A.X occurs as a rapid response to double strand DNA breaks. The γH2A.X Phosphorylation Assay Kit (Flow cytometry) is a cell-based assay formatted for flow cytometric detection of levels of phosphorylated Histone γH2A.X (Merck, UK). LSC and ‘bulk tumour’ cells were cultured in 96-well plates in the presence of clofarabine or clofarabine diphosphate phosphoramidates. After 2 h of exposure to drug, the cells were harvested by centrifugation and then fixed and permeabilised in preparation for staining and detection. Histone γH2A.X phosphorylated at serine 139 is detected by the addition of the anti-phospho-Histone γH2A.X conjugated to APC. Cells were then run on a flow cytometer to quantitate the number of cells staining positive for phosphorylated Histone γH2A.X.

in vitro = conditions: human, pooled cryopreserved hepatocytes, pH 7.3
[2] = percentage inhibition at the highest concentration tested, read-out: Top Inhibit
[3] = Homo sapiens, percentage inhibition at the highest concentration tested, read-out: Top Inh

For `Nc1nc(Cl)nc2c1ncn2[C@@H]1O[C@H](CO)[C@@H](O)[C@@H]1F` [Clofarabine, reference compound], the EC50 (HT29; Table 3 classes) was 200 to 2000 nM, the EC50 (HT29; Table 4 classes) was 200 to 1000 nM and the inhibition at 198 µM (HT29; [2]) was 64%. It also gave an EC50 (HepG2; Table 3 classes) of 2000 to 5000 nM, an EC50 (HepG2; Table 4 classes) of 1000 to 5000 nM and an inhibition at 198 µM (HepG2; [2]) of 64%. For the same compound, the inhibition at 198 µM (OVCAR 3; Homo sapiens, OVCAR-3, 72 h, percentage inhibition at the highest concentration tested, read-out: Top Inhibit) was 48%, the EC50 (OVCAR 3; Homo sapiens, Table 3 classes) was over 10000 nM and the EC50 (OVCAR 3; Table 4 classes) was over 10000 nM. The EC50 (CCRF-CEM; Table 4 classes) was under 200 nM, the EC50 (CCRF-CEM; Homo sapiens, Table 3 classes) was under 200 nM and the inhibition at 198 µM (CCRF-CEM; [3]) was 98.7%. The inhibition at 198 µM (MOLT-4; [3]) was 84.1%, the EC50 (MOLT-4; Homo sapiens, Table 3 classes) was under 200 nM and the EC50 (MOLT-4; Table 4 classes) was under 200 nM. The inhibition at 198 µM (K562; Homo sapiens, K562, 72 h, percentage inhibition at the highest concentration tested, read-out: Top Inh) was 23%, the EC50 (K562; Homo sapiens, K562, 72 h, Table 3 classes) was over 10000 nM and the EC50 (K562; K 562, 72 h, Table 4 classes) was over 10000 nM. It also gave an EC50 (RPMI-8226; Table 3 classes) of 5000 to 10000 nM, an EC50 (RPMI-8226; Table 4 classes) of over 10000 nM and an inhibition at 198 µM (RPMI-8226; percentage inhibition at the highest concentration tested, read-out: Top Inh) of 89%. For the same compound, the “change of potency (mean LD50) under hypoxic versus normoxic conditions” value (KG1a cells; in words) was “significant loss in potency under hypoxic conditions; also recorded: significant reduction in potency”, the “change of potency (mean LD50) under hypoxic versus normoxic conditions” value (KG1a cells; in words, listed as clofarabine) was “significant increase in mean LD50 under hypoxic conditions; also recorded: significant reduction in potency” and the “Hypoxia Mean LD50” value (KG1a cells; 48 h, hypoxic (5% O2)) was 53.1 nM. The “Mean LD50 (Normoxia Mean LD50)” value (KG1a cells; 48 h, normoxic (20% oxygen)) was 16.9 nM, the “mean LD50 under hypoxic conditions” value (KG1a cells; hypoxic (5% oxygen)) was 53.1 nM and the “potency in KG1a cells (dose-response curves)” value (KG1a cells; in words) was “highest potency”. For the same compound, the “mean LD50” value (KG1a cells; normoxic) was 16.9 nM, the “Ratio Normoxia/Hypoxia” value (KG1a cells; ratio of mean LD50 values) was 31.8 and the “DNA damage in LSCs compared with bulk tumour cells (γH2A.X phosphorylation)” value [1] was “level of DNA damage in the LSCs was significantly lower than the bulk tumour cells”. The half-life at 1 μM (in vitro) was over 2 h.
